Results from paper PMC2642990, “The Glycogen-Binding Domain on the AMPK β Subunit Allows the Kinase to Act as a Glycogen Sensor” (Cell Metabolism, 2009).

What was measured:
β1-GBD = biological target: T1, β1-GBD (Rattus norvegicus, UniProt P80386); assay: capture of glycogen hydrolysate fragments on GST-β1 GBD affinity column; type: binding; conditions: from partial acid hydrolysate of bovine liver glycogen; eluted with propionic acid
T1 construct: The rat β1 GBD (residues 70-172 was cloned into pGEX6P2, expressed in Escherichia coli (BL21)); made in house; host or cells: E. coli BL21
T1 sequence (P80386 70-172): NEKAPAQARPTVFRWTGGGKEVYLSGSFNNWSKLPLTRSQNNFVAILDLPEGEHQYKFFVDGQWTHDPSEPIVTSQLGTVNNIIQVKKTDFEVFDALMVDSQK
Description: In an attempt to establish the chemical nature of the regions of glycogen that bind to the GBD and cause inhibition of the AMPK complex, we carried out partial acid hydrolysis of bovine liver glycogen and utilized the β1 GBD as an affinity matrix to purify hydrolysis products that bound to the GBD. The hydrolysis conditions were chosen to yield a range of oligosaccharides containing up to six glucose units, as detected by high-performance anion exchange chromatography (HPAEC). The hydrolysate was passed down a glutathione Sepharose column to which the GST-GBD had been prebound, and bound oligosaccharides eluted with propionic acid. The eluted oligosaccharides were analyzed by HPAEC (Figure 5A). […] That this disaccharide contained glucose was confirmed by collision-induced dissociation and tandem mass spectrometry (Figure 5B); the product ion spectrum contained a daughter peak at 203, corresponding to the mass of glucose plus one Na^+ ion. […]
To 60 μl of the material from HPAEC, 5 μl of 80% (v/v) acetonitrile plus 2% (v/v) formic acid was added. Small aliquots of this solution were transferred to Waters nanotips (Type F; Millipore, Watford, UK) and analyzed by electrospray ionization–mass spectrometry (ES-MS) in negative ion mode on an ABI Q-StarXL spectrometer (Applied Biosystems, Cambridge, UK). […]

[1] = biological target: T2, recombinant AMPK complex (myc-α1:β1:γ1) (Rattus norvegicus, UniProt P80386); assay: recombinant wild-type AMPK expressed in CCL13 cells, assayed in anti-myc immunoprecipitates; type: biochemical; conditions: 20 mM; Figure 5D
T2 construct: recombinant AMPK complex (myc-α1:β1:γ1) containing full-length (1–270) or truncated β1 subunit lacking the GBD (172–270); made in house; host or cells: human CCL13 cells, co-transfected; isolated by anti-myc immunoprecipitation
Description: Figure 2 Allosteric Inhibition of AMPK by Different Glycogen Preparations (A) Concentration dependence of inhibition of native rat liver AMPK by preparations of bovine and rat liver glycogen; glycogen concentrations expressed as glucose produced after total hydrolysis. Data were fitted to an IC50 equation (see Supplemental Experimental Procedures), and curves were generated using the estimated best-fit parameters. (B) Concentration dependence of inhibition of native rat liver AMPK by bovine liver glycogen in the presence and absence of 200 μM AMP; curves were generated as in (A). (C) Inhibition by bovine liver glycogen of recombinant AMPK complex (myc-α1:β1:γ1) containing full-length (1–270) or truncated β1 subunit lacking the GBD (172–270). Complexes were expressed in CCL13 cells and purified by immunoprecipitation prior to assay with or without glycogen (200 mM glucose equivalents). Data are means ± SEM (n = 3). ^∗Activity different from control without glycogen by t test (p < 0.05). […] Results are expressed as percentages of the activity in controls without glycogen, and data are mean ± SEM (n = 3). […]

T2 sequence (P80386 whole entry, the tested form may be a part): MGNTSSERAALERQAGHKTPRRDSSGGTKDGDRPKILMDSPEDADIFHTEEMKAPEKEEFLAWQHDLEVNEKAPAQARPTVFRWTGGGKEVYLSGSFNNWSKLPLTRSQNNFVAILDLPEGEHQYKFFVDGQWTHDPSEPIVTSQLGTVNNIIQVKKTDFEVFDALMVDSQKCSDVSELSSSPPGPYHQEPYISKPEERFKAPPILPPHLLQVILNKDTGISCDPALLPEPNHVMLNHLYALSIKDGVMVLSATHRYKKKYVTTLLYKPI
T2 sequence (P54645 13-559 partner limits assumed): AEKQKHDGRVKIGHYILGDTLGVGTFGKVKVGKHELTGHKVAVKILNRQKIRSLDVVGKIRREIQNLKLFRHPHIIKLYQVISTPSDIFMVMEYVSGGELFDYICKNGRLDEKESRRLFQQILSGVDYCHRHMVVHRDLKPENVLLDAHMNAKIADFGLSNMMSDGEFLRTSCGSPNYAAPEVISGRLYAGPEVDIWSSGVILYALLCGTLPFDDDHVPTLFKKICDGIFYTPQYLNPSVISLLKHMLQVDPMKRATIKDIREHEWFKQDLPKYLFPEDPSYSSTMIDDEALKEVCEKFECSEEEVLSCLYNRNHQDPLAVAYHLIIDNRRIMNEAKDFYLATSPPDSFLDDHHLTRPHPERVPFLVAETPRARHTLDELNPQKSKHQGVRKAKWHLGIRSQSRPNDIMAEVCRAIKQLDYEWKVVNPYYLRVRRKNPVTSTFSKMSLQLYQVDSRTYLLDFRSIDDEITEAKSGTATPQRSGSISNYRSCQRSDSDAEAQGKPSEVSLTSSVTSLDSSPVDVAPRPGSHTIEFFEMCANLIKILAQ
T2 sequence (P80385 whole entry partner, the tested form may be a part): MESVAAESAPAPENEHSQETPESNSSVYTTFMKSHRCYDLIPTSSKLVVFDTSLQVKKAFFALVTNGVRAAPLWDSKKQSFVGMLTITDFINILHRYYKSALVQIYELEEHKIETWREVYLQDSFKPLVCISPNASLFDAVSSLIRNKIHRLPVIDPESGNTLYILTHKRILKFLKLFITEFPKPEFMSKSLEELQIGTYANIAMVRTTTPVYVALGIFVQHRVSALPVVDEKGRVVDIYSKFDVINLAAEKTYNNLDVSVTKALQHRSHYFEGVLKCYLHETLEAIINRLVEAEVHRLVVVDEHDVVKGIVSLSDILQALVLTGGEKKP

## OC[C@H]1O[C@H](OC[C@H]2OC(O)[C@H](O)[C@@H](O)[C@@H]2O)[C@H](O)[C@@H](O)[C@@H]1O (some centres unmarked) [isomaltose]
β1-GBD
  binding to immobilised β1-GBD: bound to the β1-GBD
[1]
  inhibition of wild-type recombinant α1β1γ1: inhibited
